From ChEMBL document CHEMBL2163248, “Classification of inhibitors of hepatic organic anion transporting polypeptides (OATPs): influence of protein expression on drug-drug interactions” (J Med Chem, 2012) come the findings set out here.

Series [1] deals with T1, Solute carrier organic anion transporter family member 1B1 (Homo sapiens, UniProt Q9Y6L6).
T1 sequence (Q9Y6L6 whole entry): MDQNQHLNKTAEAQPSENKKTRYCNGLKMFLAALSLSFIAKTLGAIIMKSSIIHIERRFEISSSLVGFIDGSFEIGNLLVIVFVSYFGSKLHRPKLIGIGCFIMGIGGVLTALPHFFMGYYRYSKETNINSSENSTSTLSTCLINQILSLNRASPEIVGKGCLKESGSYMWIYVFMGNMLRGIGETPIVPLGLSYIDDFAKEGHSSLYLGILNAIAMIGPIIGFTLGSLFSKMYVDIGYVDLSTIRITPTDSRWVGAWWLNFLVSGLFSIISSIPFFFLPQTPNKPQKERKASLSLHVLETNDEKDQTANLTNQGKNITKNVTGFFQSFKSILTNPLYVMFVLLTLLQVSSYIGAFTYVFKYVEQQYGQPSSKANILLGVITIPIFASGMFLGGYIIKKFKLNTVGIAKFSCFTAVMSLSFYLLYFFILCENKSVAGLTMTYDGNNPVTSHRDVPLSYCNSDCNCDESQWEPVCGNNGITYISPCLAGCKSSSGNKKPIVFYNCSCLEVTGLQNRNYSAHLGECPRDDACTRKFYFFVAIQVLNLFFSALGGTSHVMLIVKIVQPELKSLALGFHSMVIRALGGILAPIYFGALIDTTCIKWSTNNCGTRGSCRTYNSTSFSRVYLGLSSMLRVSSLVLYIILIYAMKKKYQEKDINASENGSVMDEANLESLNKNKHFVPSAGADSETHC
As to the kind of experiment: Inhibition of human liver OATP1B1 expressed in HEK293 Flp-In cells assessed as reduction in E17-betaG uptake at 20 uM by scintillation counting. Particulars: hek293, 20 µM.

Series [2] concerns the target T2, Solute carrier organic anion transporter family member 2B1 (Homo sapiens, UniProt O94956).
T2 sequence (O94956 whole entry): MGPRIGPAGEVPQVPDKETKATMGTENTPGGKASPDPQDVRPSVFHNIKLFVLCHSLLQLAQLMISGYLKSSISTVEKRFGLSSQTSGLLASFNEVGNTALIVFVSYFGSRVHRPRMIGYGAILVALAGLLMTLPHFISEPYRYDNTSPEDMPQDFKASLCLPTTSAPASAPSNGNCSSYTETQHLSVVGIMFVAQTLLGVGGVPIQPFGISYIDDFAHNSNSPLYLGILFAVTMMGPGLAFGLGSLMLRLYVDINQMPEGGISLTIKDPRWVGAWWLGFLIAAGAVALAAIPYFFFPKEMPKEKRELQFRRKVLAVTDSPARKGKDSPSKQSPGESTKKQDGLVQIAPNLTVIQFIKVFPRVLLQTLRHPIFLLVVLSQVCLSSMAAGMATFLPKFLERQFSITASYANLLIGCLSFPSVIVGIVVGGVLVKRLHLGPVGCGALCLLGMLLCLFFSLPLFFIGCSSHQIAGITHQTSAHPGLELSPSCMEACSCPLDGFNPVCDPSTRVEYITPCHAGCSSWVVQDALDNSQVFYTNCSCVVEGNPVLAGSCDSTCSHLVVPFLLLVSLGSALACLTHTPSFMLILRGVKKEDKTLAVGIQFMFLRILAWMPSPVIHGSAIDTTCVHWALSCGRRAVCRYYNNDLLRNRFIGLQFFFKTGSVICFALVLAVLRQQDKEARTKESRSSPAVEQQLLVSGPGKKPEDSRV
In words: Inhibition of human liver OATP2B1 expressed in HEK293 Flp-In cells assessed as reduction in [3H]E3S uptake at 20 uM incubated for 5 mins by scintillation counting. The settings on record: hek293, 5 min.

For series [3], the target named is T3, Solute carrier organic anion transporter family member 1B3 (Homo sapiens, UniProt Q9NPD5).
T3 sequence (Q9NPD5 whole entry): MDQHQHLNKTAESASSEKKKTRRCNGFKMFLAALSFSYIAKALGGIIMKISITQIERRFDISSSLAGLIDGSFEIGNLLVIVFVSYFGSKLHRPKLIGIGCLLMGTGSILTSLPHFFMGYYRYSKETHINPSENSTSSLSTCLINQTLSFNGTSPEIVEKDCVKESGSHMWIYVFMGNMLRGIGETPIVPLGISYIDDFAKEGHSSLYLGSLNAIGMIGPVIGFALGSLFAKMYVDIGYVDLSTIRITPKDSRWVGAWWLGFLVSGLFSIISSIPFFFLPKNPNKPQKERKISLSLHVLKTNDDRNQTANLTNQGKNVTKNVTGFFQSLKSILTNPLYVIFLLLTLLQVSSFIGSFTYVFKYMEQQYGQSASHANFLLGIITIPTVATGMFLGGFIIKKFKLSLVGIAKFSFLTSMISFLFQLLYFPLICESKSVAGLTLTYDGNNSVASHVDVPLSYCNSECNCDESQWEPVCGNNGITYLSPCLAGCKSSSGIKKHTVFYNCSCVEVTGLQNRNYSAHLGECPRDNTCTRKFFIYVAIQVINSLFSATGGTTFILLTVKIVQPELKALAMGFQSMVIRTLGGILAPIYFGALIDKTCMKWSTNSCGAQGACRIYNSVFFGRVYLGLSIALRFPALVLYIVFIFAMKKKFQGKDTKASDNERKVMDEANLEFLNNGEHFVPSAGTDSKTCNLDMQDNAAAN
As to the kind of experiment: Inhibition of human liver OATP1B3 expressed in HEK293 Flp-In cells assessed as reduction in [3H]E17-betaG uptake at 20 uM incubated for 5 mins by scintillation counting. The settings on record: hek293, 5 min.

In the case of `C[C@H](CCC(=O)NCC(=O)O)[C@H]1CC[C@H]2[C@@H]3CC[C@@H]4C[C@H](O)CC[C@]4(C)[C@H]3C[C@H](O)[C@]12C` [GLYCODEOXYCHOLATE], the INH in series [1] is reported as 85%; in series [2], 53.8%; in series [3], 79%.

As for `C[C@]12CC[C@@H]3c4ccc(OS(=O)(=O)O)cc4CC[C@H]3[C@@H]1CCC2=O` [ESTRONE SULFURIC ACID], the INH in series [1] is 98.1%; in series [2] it was 20.8%; in series [3], 10.1%.

In the case of `O=c1ccc2ccccc2o1` [COUMARIN], the figures for the INH in series [1], in series [2] and in series [3] were 7.6%, 9.3% and 38.2%, respectively.

In the case of `C[C@H](CCC(=O)O)[C@H]1CC[C@H]2[C@@H]3[C@H](O)C[C@@H]4C[C@H](O)CC[C@]4(C)[C@H]3C[C@H](O)[C@]12C` [CHOLIC ACID], the INH in series [1] is given as 41.6%; in series [2], 20.2%; in series [3], 40.8%.

On to `CCOc1nc2cccc(C(=O)O)c2n1Cc1ccc(-c2ccccc2-c2nnn[nH]2)cc1`, for which the values for the INH in series [1], in series [2] and in series [3] were 52.1%, 28.4% and 28.6%, respectively.

For the molecule `CNCCC(Oc1ccc(C(F)(F)F)cc1)c1ccccc1` (configuration not stated) [FLUOXETINE], the INH in series [1] is listed as 21.8%; in series [2], 22.6%; in series [3], 14.3%.

As for `CCOC(=O)[C@H](CCc1ccccc1)N[C@@H](C)C(=O)N1CCC[C@H]1C(=O)O`, the INH in series [1] is on record as -7.5%; in series [2], 19.7%; in series [3], 4.1%.

As to `CN1CCC[C@H]1c1cccnc1` [NICOTINE], the INH in series [1] was 6.9%; in series [2], -16.5%; in series [3] it was 11%.

Consider `C[C@H](Cn1cnc2c(N)ncnc21)OCP(=O)(O)O` [TENOFOVIR ANHYDROUS], for which the INH in series [1] was 18.4%; in series [2], 23.3%; in series [3], 33.6%.

As for `Clc1ccccc1C(c1ccccc1)(c1ccccc1)n1ccnc1` [CLOTRIMAZOLE], the values for the INH in series [1], in series [2] and in series [3] were 32.3%, -37.1% and -120.4%, respectively.

Take `C[C@@H]1O[C@@H](O[C@H]2C[C@@H](O)[C@]3(CO)[C@H]4[C@H](O)C[C@]5(C)[C@@H](C6=CC(=O)OC6)CC[C@]5(O)[C@@H]4CC[C@]3(O)C2)[C@H](O)[C@H](O)[C@H]1O` [OUABAIN]: the INH is on record as 50.5% in series [1], -24.1% in series [2] and 20.5% in series [3].

For `Nc1nc2c(ncn2COCCO)c(=O)[nH]1` [ACYCLOVIR], the INH in series [1] was 2.3%; in series [2], -15.2%; in series [3], -2%.

In the case of `Clc1ccccc1CN1CCc2sccc2C1` [TICLOPIDINE], the INH was 19.4% in series [1], 23% in series [2] and 0.2% in series [3].

`[H]/N=C(/N)N/C(=N/[H])NCCc1ccccc1` [PHENFORMIN]: the INH is recorded as 34.5% in series [1], 16.7% in series [2] and -2.3% in series [3].

For `COc1cc2c(c(OC)c1OC)-c1ccc(OC)c(=O)cc1[C@@H](NC(C)=O)CC2` [COLCHICINE], the figures for the INH in series [1], in series [2] and in series [3] were 45.2%, 24.4% and -3.9%, respectively.

For `COCCCC/C(=N\OCCN)c1ccc(C(F)(F)F)cc1` [FLUVOXAMINE], the INH is listed as 43.8% in series [1], 39% in series [2] and 29.2% in series [3].

As for `CNC(=O)c1cccnc1` [NICOTINYL METHYLAMIDE], the INH is given as 71.4% in series [1], 14.5% in series [2] and -0.5% in series [3].

In the case of `CNCC[C@@H](Oc1ccccc1C)c1ccccc1` [ATOMOXETINE], the INH in series [1] is on record as -7.5%; in series [2] it was 16.3%; in series [3], 31.6%.

As to `CC[C@H]1OC(=O)[C@H](C)[C@@H](O[C@H]2C[C@@](C)(OC)[C@@H](O)[C@H](C)O2)[C@H](C)[C@@H](O[C@@H]2O[C@H](C)C[C@H](N(C)C)[C@H]2O)[C@](C)(O)C[C@@H](C)C(=O)[C@H](C)[C@@H](O)[C@]1(C)O` [ERYTHROMYCIN], the INH in series [1] was 58.8%; in series [2], -19%; in series [3], 45.8%.

Consider `C[C@H](CCC(=O)NCCS(=O)(=O)O)[C@H]1CC[C@H]2[C@@H]3CC[C@@H]4C[C@H](O)CC[C@]4(C)[C@H]3CC[C@]12C` [TAUROLITHOCHOLIC ACID], for which the results for the INH in series [1], in series [2] and in series [3] were 97.8%, 94.6% and 89.8%, respectively.

As for `COCc1c(C(C)C)nc(C(C)C)c(/C=C/[C@@H](O)C[C@@H](O)CC(=O)O)c1-c1ccc(F)cc1` [CERIVASTATIN], the INH amounted to 73.6% in series [1], 40.1% in series [2] and 68.1% in series [3].

Turning to `Fc1ccc([C@@H]2CCNC[C@H]2COc2ccc3c(c2)OCO3)cc1` [PAROXETINE], the INH in series [1] is recorded as 33%; in series [2], 37.5%; in series [3], 12.7%.

Consider `CCCc1nn(C)c2c(=O)[nH]c(-c3cc(S(=O)(=O)N4CCN(C)CC4)ccc3OCC)nc12`, for which the values for the INH in series [1], in series [2] and in series [3] were 22.2%, 45.9% and 30.8%, respectively.

Take `CCc1cccc2cc(C(O)CNC(C)(C)C)oc12` (configuration not stated) [BUFURALOL]: the INH in series [1] is on record as -13.9%; in series [2], -7%; in series [3], 23.8%.

With `CCc1nn(CCCN2CCN(c3cccc(Cl)c3)CC2)c(=O)n1CCOc1ccccc1` [NEFAZODONE], the values for the INH in series [1], in series [2] and in series [3] were 12%, 61.5% and 61.4%, respectively.

For the molecule `C[C@@H]1C[C@H]2[C@@H]3CCC4=CC(=O)C=C[C@]4(C)[C@@]3(F)[C@@H](O)C[C@]2(C)[C@@]1(O)C(=O)CO` [DEXAMETHASONE], the INH is 10.7% in series [1], -12.5% in series [2] and 34.2% in series [3].

Regarding `CC(C)Cc1ccc(C(C)C(=O)O)cc1` (configuration not stated) [IBUPROFEN], the INH was 47.3% in series [1], 13.5% in series [2] and -6.6% in series [3].

With `Cc1cn([C@H]2C[C@H](N=[N+]=[N-])[C@@H](CO)O2)c(=O)[nH]c1=O` [ZIDOVUDINE], the INH is recorded as 9.5% in series [1], 4.7% in series [2] and 7.1% in series [3].

On to `CN(C)C(=O)CCSC(SCCC(=O)O)c1cccc(/C=C/c2ccc3ccc(Cl)cc3n2)c1` (configuration not stated) [MK-571], for which the INH in series [1] worked out at 88.5%; in series [2], 75.2%; in series [3] it was 80.7%.
